Reference: patent publication US20180153826A1, “MATERIALS AND METHODS FOR THE TREATMENT OF CYSTIC FIBROSIS” (UNIVERSITY OF FLORIDA RESEARCH FOUNDATION, INC., priority 2015, published 2018)

Experiments:
[1] = tested on: SCFA/HCO3^− exchange; test: SCFA/HCO3^− exchange activity (isobutyrate-dependent HCO3^− secretion); set-up: species or system rat; details: 10 μM serosa; 25 mM isobutyrate lumen
Protocol: (§1) Stripped mucosal sheets were mounted into Ussing chambers (window area=0.3-0.5 cm^2, Physiologic Instruments, San Diego, Calif.). The mucosal side of tissue was bathed with an unbuffered HCO3^−-free Cl^− Ringer solution (see Table 2 for detailed composition) circulated by a gas lift with 100% O2 while the serosal side was bathed with buffered Cl^− Ringer solution (pH 7.4) that contained 25 mM HCO3^− and gassed with 5% CO2/95% O2. Each side contained 3-5 ml of solution and the temperature of the solution was adjusted to and maintained at 37° C. by heated water-jacketed reservoirs. […]
(§2) Two types of approaches were used in the measurement of colonic HCO3^− secretion, namely, measurement of lumen pH or pH stat titration of net alkalinization by colonic mucosa. […] The amount of the acid delivered per unit time per surface area was used to quantitate HCO3^− secretion by the mucosa. Measurements were recorded continuously and mean values for consecutive 5 or 10 min periods were averaged. The rate of HCO3^− secretion (JHCO3) is expressed as μEq/hr/cm^2. The short-circuit current (Isc) was measured in microamperes (μA) and converted into μEq/hr/cm^2. Tissue resistance (R, Ω cm^2) was calculated from Ohm's law.
SCFA/HCO3^− exchange activity was calculated as ΔJHCO3 (the difference between JHCO3 in the presence minus absence of luminal isobutyrate).

[2] = tested on: Cl^−/HCO3^− exchange; test: Cl^−/HCO3^− exchange activity (Cl^−-dependent HCO3^− secretion); set-up: species or system rat; details: 10 μM, added to serosal side
Protocol: as §1
as §2, with “law. […]” for “law.”

[3] = tested on: colon mucosa of wild type mice; test: HCO3^− secretion in colon mucosa of wild type (CaSR^+/+) mice; set-up: species or system mouse
Protocol: FIGS. 13A-13F. […] Colonic mucosa from wild type (CaSR^+/+) (A-C) and knockout (CaSR^-/-) mice (D-F) were isolated and treated, and activities of the three HCO3^- transporters assayed as in rats. Data are means±SEM of 4-6 experiments. *p<0.05 vs. control (1st bar). Experiments were performed using non-fasting male Sprague-Dawley rats and C57BL/6 mice. Rats weighting 100-400 g were obtained from Charles River Laboratories. Mice lacking CaSR expression in intestinal epithelial cells (CaSR^-/-) and their CaSR^+/+ littermates were bred and maintained. CaSR^-/- mice were generated as previously described. Briefly, CaSR flox/flox mice were bred with transgenic mice expressing Cre Recombinase under the control of the villin 1 promoter and genotyped prior to all experiments after an approximate 10-12 generations. Mice were used at 5-10 weeks of age. Animals were fed and maintained on regular chow (Harlan) with free access to water before sacrifice. Animals were sacrificed with standard CO2 inhalation followed by cervical dislocation. The colons were isolated, cut open along the mesenteric border into a flat sheet, and flushed with ice-cold Ringer solutions. Mucosa from the distal colon were carefully hand-stripped off of serosal, muscular and submucosal layers as described and a pair of adjacent mucosal segments were incised and mounted into Ussing chambers. In some experiments, stripped mucosa was incised longitudinally into two equal pieces in order to facilitate comparisons between control and treatment. […] To verify that the effects of […] occurred via the CaSR, additional studies on the effect of […] were performed in intestinal epithelium-specific CaSR knockout mice (FIG. 13). Intestinal epithelium-specific CaSR knockout mice were used together with their wild type littermates.

[4] = tested on: CFTR-mediated and non CFTR-mediated HCO3^− secretion; test: Isc and pH stat HCO3^− secretion with/without lumen Cl^−, CFTR inhibitors or DIDS (FIGS. 5, 6)
Source text: FIG. 3. Experimental approach 1: The Ussing chamber pH-stat set up used to monitor and measure HCO3^- secretion by colonic mucosa. FIG. 4. Experimental Approach 2: Measurement of HCO3^- secretion by colonic mucosa in the presence of apical NPPB/Glibenclamide. FIGS. 5A-5F. Activation of CaSR by […] inhibits CFTR-mediated HCO3^- secretion (JHCO3) and ISC but stimulates non CFTR-mediated HCO3^- secretion (JHCO3) and Isc. Physiological approach assayed with, versus without, lumen Cl^-. FIGS. 6A-6F. Activation of CaSR by […] inhibits CFTR-mediated HCO3^- secretion (JHCO3) and ISC but stimulates CFTR-independent HCO3^- secretion (JHCO3) and Isc. Pharmacological approach assayed with, and without, CFTR transporter inhibitors or AE inhibitor DIDS.

[5] = tested on: colon mucosa of CaSR null mice; test: HCO3^− secretion in colon mucosa of CaSR null (CaSR^−/−) mice; set-up: species or system mouse
Protocol: FIGS. 13A-13F. […] Colonic mucosa from wild type (CaSR^+/+) (A-C) and knockout (CaSR^-/-) mice (D-F) were isolated and treated, and activities of the three HCO3^- transporters assayed as in rats. Data are means±SEM of 4-6 experiments. *p<0.05 vs. control (1st bar). Experiments were performed using non-fasting male Sprague-Dawley rats and C57BL/6 mice. Rats weighting 100-400 g were obtained from Charles River Laboratories. Mice lacking CaSR expression in intestinal epithelial cells (CaSR^-/-) and their CaSR^+/+ littermates were bred and maintained. CaSR^-/- mice were generated as previously described. Briefly, CaSR flox/flox mice were bred with transgenic mice expressing Cre Recombinase under the control of the villin 1 promoter and genotyped prior to all experiments after an approximate 10-12 generations. Mice were used at 5-10 weeks of age. Animals were fed and maintained on regular chow (Harlan) with free access to water before sacrifice. Animals were sacrificed with standard CO2 inhalation followed by cervical dislocation. The colons were isolated, cut open along the mesenteric border into a flat sheet, and flushed with ice-cold Ringer solutions. Mucosa from the distal colon were carefully hand-stripped off of serosal, muscular and submucosal layers as described and a pair of adjacent mucosal segments were incised and mounted into Ussing chambers. […]

Which results are given for COc1cccc([C@@H](C)NCCCc2ccccc2Cl)c1.Cl [R568, 2-Chloro-N-[(1R)-1-(3-methoxyphenyl)ethyl]-benzenepropanamine hydrochloride]?
isobutyrate-dependent HCO3^− secretion [1]: significantly stimulated; Cl^−/HCO3^− exchange activity [2]: stimulation; Cl^−-dependent HCO3^− secretion [3]: stimulated; SCFA-dependent HCO3^− secretion [3]: stimulated; cAMP-dependent HCO3^− secretion [3]: inhibited; HCO3^− secretion (pH stat) ([4]; absence of lumen Cl^−): net inhibition; phase I Isc stimulation induced by R568 ([4]; absence of lumen Cl^−): abolished; phase II Isc inhibition ([4]; absence of lumen Cl^−): remained unchanged or slightly reduced; HCO3^− secretion (pH stat) ([4]; presence of lumen Cl^−): net stimulation; Isc response ([4]; presence of lumen Cl^−): two-phase response; R568 effects on Cl^−-, SCFA- and cAMP-dependent HCO3^− secretion [5]: abolished
